Laboratory results taken from patent publication US8969336B2, “Diamino heterocyclic carboxamide compound” (Astellas Pharma Inc., priority 2009, dated 2015).

How the values were obtained:
[1] = target: EML4-ALK fusion protein v1 (Homo sapiens (Human), UniProt Q9UM73); assay: Inhibitory activity against the kinase activity of EML4-ALK fusion protein (HTRF KinEASE-TK); format: biochemical; settings: ATP 100 μM, reaction 1 hour
Text: A recombinant retrovirus was created from expression plasmid FLAG-EML4-ALKv1/pMX-iresCD8 in which cDNA for EML4-ALK fusion protein v1 was integrated, and injected into mouse lymphoid cell line BA/F3 cells. Using a magnetic bead reagent for cell separation and a purification column (anti-CD8 monoclonal antibody immobilized on magnetic beads and a MiniMACS purification column; both are products of Miltenyi Biotec Inc.), cell surface CD8-expressing cells were purified to establish EML4-ALK fusion protein v1-expressing BA/F3 cells. From the cells, EML4-ALK fusion protein v1 was purified and subjected to kinase activity evaluation. EML4-ALK fusion protein v1 was investigated for its phosphorylation activity toward a peptide substrate by using a kinase activity detection kit (HTRF KinEASE-TK; Cisbio Inc.). […] The ATP concentration used was 100 μM.

[2] = tested on: BA/F3 cells expressing EML4-ALK fusion protein v1; assay: Growth inhibitory activity against EML4-ALK fusion protein-dependent cells; format: cell-based, mouse; settings: growth of EML4-ALK fusion protein v1-expressing BA/F3 cells, cultured 2 days
Method: EML4-ALK fusion protein v1-expressing BA/F3 cells can grow in the absence of IL-3. In other words, they are cells that EML4-ALK fusion protein v1-dependently grow.
In a 96-well plate (Iwaki), BA/F3 cells expressing EML4-ALK fusion protein v1 were seeded at 500 cells per well in RPMI1640 medium (Invitrogen) containing 10% fetal bovine serum, followed by addition of a test compound (final concentration: 10 μM to 0.1 nM). As a negative control, DMSO used as a solvent of the test compound was added. Then, the cells were cultured under 5% CO2 at 37° C. for 2 days. A cell counting reagent (AlmarBlue; Biosource) was added, and the cells were cultured for 150 minutes, followed by measurement of fluorescence intensity with a […] (Safire; Tecan) in accordance with instructions attached to the reagent.

[3] = tested on: human non-small cell lung cancers cell line NCI-H2228 cells; assay: Antitumor test (in vivo) on NCI-H2228 cells; settings: oral administration, NOD/SCID mice, Student's t-test
Text: The antitumor effects on EML4-ALK fusion protein-dependent cells can also be confirmed by use of human non-small cell lung cancers cell line NCI-H2228 cells (cells derived from EML4-ALK fusion polynucleotide-positive lung cancer patients (EML4-ALK fusion protein v3-dependent cells)) in place of the EML4-ALK fusion protein v1 expressing 3T3 cells of Test Example 3, as shown below.
3×10^6 cells of NCI-H2228 cells suspended in 50% Matrigel (Invitrogen) were inoculated subcutaneously by injection to the back of 5 weeks old male NOD/SCID mice (Charles River Japan, Inc.). After 3 weeks of the inoculation, the administration of test compounds was initiated. The test was conducted in the solvent group and test compound groups, 6 animals per group. The test compounds were each dissolved in a solvent composed of 10% 1-methyl-2-pyrrolidinone (SIGMA-ALDRICH Inc.)/90% polyethylene glycol 300 (Fluka Inc.) and administered orally at a dose of 1 mg/kg. Administrations were performed once a day for 14 days, and body weight and tumor size were measured every other day. Tumor volume was calculated using the following formula. [Tumor volume(mm^3)]=[Tumor major axis(mm)]×[tumor minor axis(mm)]^2×0.5

[4] = tested on: EML4-ALK fusion protein v1 expressing 3T3 cells; assay: Antitumor test (in vivo) on EML4-ALK fusion protein v1 expressing 3T3 cells; settings: oral 10 mg/kg once a day for 5 days, Balb/c nude mice, EML4-ALK v1 3T3 tumor; for rate of regression (tumor volume): values marked (regression)
Text: Expression plasmid EML4-ALKv1/pMXS in which cDNA for EML4-ALK fusion protein v1 was integrated was trasfected into 3T3 fibroblast cells by the phosphate calcium method to thereby establish EML4-ALK fusion protein v1 expressing 3T3 cells. 3×10^6 cells of EML4-ALK fusion protein v1 expressing 3T3 cells suspended in PBS were inoculated subcutaneously by injection to the back of 5 weeks old male Balb/c nude mice (Charles River Japan, Inc.). After 7 days of the inoculation, the administration of test compound was initiated. The test was conducted in the solvent group and the compound group, 4 animals per group. The test compound was suspended in a solvent composed of 0.5% methylcellulose and administered orally at a dose of 10 mg/kg. Administrations were performed once a day for 5 days, and body weight and tumor size were measured every other day. Tumor volume was calculated using the following formula. [Tumor volume(mm^3)]=[Tumor major axis(mm)]×[tumor minor axis(mm)]^2×0.5
When regression of tumor volume is induced from the day of starting administration, the tumor volume on the day of starting administration and the state in which the tumor disappeared were assumed to be 0% regression and 100% regression, respectively, and the rate of regression of the test compound was calculated.

Chain of EML4-ALK fusion protein v1 (Q9UM73 other isoform, or with tags, fused parts or gaps): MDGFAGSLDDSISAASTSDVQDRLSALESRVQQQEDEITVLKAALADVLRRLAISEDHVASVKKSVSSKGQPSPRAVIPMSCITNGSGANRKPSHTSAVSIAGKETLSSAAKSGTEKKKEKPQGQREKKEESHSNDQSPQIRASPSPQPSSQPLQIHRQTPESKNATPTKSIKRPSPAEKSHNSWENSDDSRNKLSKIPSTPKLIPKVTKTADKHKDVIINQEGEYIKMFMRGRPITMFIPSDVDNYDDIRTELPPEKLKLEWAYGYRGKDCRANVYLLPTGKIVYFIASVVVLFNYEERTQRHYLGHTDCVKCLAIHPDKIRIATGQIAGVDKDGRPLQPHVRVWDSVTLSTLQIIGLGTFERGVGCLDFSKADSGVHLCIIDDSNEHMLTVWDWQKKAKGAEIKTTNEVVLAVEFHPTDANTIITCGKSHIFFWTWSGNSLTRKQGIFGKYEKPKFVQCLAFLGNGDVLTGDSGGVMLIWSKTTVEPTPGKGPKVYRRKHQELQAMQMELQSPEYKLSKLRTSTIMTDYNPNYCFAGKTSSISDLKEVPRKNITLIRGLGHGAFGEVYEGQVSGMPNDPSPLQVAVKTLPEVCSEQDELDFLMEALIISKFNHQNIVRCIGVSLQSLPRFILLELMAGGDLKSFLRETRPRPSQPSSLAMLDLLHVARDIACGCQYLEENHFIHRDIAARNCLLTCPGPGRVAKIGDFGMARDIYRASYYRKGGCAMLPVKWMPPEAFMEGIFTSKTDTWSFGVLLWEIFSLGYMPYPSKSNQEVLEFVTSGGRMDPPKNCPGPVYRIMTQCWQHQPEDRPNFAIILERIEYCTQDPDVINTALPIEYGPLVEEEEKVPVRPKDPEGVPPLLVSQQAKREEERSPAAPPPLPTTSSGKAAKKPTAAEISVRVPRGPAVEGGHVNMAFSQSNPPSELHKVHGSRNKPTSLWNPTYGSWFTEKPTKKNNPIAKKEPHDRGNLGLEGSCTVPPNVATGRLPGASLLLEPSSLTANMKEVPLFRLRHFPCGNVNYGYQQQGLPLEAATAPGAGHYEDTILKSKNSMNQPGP

| SMILES | IC50 [1] [nM] | IC50 ([2]; Mus musculus, BaF3, 48 h) [nM] | growth inhibition against NCI-H2228 cells (tumor) compared with the solvent group [3] | inhibition rate (tumor volume) [4] [%] | rate of regression (tumor volume) [4] | IC50 [2] [nM] |
| --- | --- | --- | --- | --- | --- | --- |
| NC(=O)c1cnc(N[C@@H]2CCCC[C@@H]2N)nc1Nc1ccc(-c2ccc(N3CCOCC3)cc2)cc1 (racemic) [Compound X, rac-2-{[(1R,2S)-2-aminocyclohexyl]amino}-4-{[4′-(morpholin-4-yl)biphenyl-4-yl]amino}pyrimidine-5-carboxamide, reference compound] | 220 | 821 | no significant growth inhibition |  |  |  |
| CCc1nc(C(N)=O)c(Nc2cccc(S(C)(=O)=O)c2)nc1N[C@H]1CC[C@H](O)CC1 [Example 86] | 17 | 68 |  |  |  |  |
| CCc1nc(C(N)=O)c(Nc2ccc(N3CCC(N4CCN(C)CC4)CC3)cc2OC)nc1N[C@H]1CC[C@H](O)CC1 [Example 284] | 8.9 | 85 |  |  |  |  |
| CCc1nc(C(N)=O)c(Nc2ccc(N3CCN(C)CC3)cc2)nc1N[C@H]1CC[C@H](O)CC1 [Example 325] | 5.3 | 20 |  |  |  |  |
| CCc1nc(C(N)=O)c(Nc2ccc3cnn(C)c3c2)nc1N[C@H]1CC[C@H](O)CC1 [Example 328] |  | 76 |  |  |  |  |
| CCc1nc(C(N)=O)c(Nc2ccc(N3CCC(N4CCN(C)CC4)CC3)c(OC)c2)nc1N[C@H]1CC[C@H](O)CC1 [Example 340] | 0.37 | 9.5 |  |  |  |  |
| CCc1nc(C(N)=O)c(Nc2ccc(N3CCC(N4CCN(C)CC4)CC3)cc2)nc1N[C@H]1CC[C@H](O)CC1 [Example 341] | 2.8 | 11 |  |  |  |  |
| CC(C)c1nc(C(N)=O)c(Nc2ccc(N3CCN(C)CC3)cc2)nc1N[C@H]1CC[C@H](O)CC1 [Example 343, 5-[(trans-4-hydroxycyclohexyl)amino]-6-isopropyl-3-{[4-(4-methylpiperazin-1-yl)phenyl]amino}pyrazine-2-carboxamide] | 2.1 | 11 |  |  |  |  |
| CCc1nc(C(N)=O)c(Nc2ccc(N3CCN(C)CC3)c(C(F)(F)F)c2)nc1N[C@H]1CC[C@H](O)CC1 [Example 354] | 0.77 | 8.6 |  |  |  |  |
| CCc1nc(C(N)=O)c(Nc2ccc(N3CCN(C)CC3)c(OC)c2)nc1N[C@H]1CC[C@H](O)CC1 [Example 355] | 0.33 | 9.2 |  |  |  |  |
| CCc1nc(C(N)=O)c(Nc2ccc(N3CCC(N4CCN(C)CC4)CC3)c(C(F)(F)F)c2)nc1N[C@H]1CC[C@H](O)CC1 [Example 370] | 0.65 | 4.9 |  | 81 |  |  |
| CCc1nc(C(N)=O)c(Nc2ccc(N3CCN(C)CC3)c(C)c2)nc1N[C@H]1CC[C@H](O)CC1 [Example 377] | 0.24 | 6.9 |  |  |  |  |
| CCc1nc(C(N)=O)c(Nc2ccc(N3CCC(N4CCN(C)CC4)CC3)c(C)c2)nc1N[C@H]1CC[C@H](O)CC1 [Example 378] | 0.26 | 6.1 |  | 92 |  |  |
| CCc1nc(C(N)=O)c(Nc2ccc(OC)c(N3CCN(C)CC3)c2)nc1N[C@H]1CC[C@H](O)CC1 [Example 383] | 0.23 | 5.9 |  |  |  |  |
| CC(C)c1nc(C(N)=O)c(Nc2ccc(N3CCC(N4CCN(C)CC4)CC3)c(C(F)(F)F)c2)nc1N[C@H]1CC[C@H](O)CC1 [Example 388] | 0.17 | 4.1 |  |  |  |  |
| CCc1nc(C(N)=O)c(Nc2ccc(N3CCN(C)CC3)c(C)c2)nc1N[C@H]1CC[C@@](C)(O)CC1 [Example 391] | 0.22 | 6.5 |  |  |  |  |
| CCc1nc(C(N)=O)c(Nc2ccc(N3CCC(N4CCN(C)CC4)CC3)c(C)c2)nc1N[C@H]1CC[C@@](C)(O)CC1 [Example 392] | 0.21 | 6.3 |  |  | 28 (regression) % |  |
| CCc1nc(C(N)=O)c(Nc2ccc(N3CCN(CC4CC4)CC3)c(C(F)(F)F)c2)nc1N[C@H]1CC[C@H](O)CC1 [Example 399] | 0.94 | 11 |  |  |  |  |

| SMILES | IC50 [1] [nM] | IC50 ([2]; Mus musculus, BaF3, 48 h) [nM] | growth inhibition against NCI-H2228 cells (tumor) compared with the solvent group [3] | inhibition rate (tumor volume) [4] [%] | rate of regression (tumor volume) [4] | IC50 [2] [nM] |
| --- | --- | --- | --- | --- | --- | --- |
| CCc1nc(C(N)=O)c(Nc2ccc(N3CCC(N(C)C)C3)c(C(F)(F)F)c2)nc1N[C@H]1CC[C@H](O)CC1 (stereo partly drawn) [Example 406] | 0.34 | 9.8 |  |  |  |  |
| CCc1nc(C(N)=O)c(Nc2ccc(N3CCN(C(C)C)CC3)c(C)c2)nc1N[C@H]1CC[C@H](O)CC1 [Example 426] | 0.49 | 11 |  | 81 |  |  |
| CCOc1cc(Nc2nc(N[C@H]3CC[C@H](O)CC3)c(CC)nc2C(N)=O)ccc1N1CCC(N2CCN(C)CC2)CC1 [Example 459] | 0.26 | 8.1 |  |  |  |  |
| CCc1nc(C(N)=O)c(Nc2ccc(N3CCC(N4CCN(C)CC4)CC3)c(C)c2)nc1N[C@H]1CC[C@](C)(O)CC1 [Example 466] | 0.93 | 9.3 |  |  | 54 (regression) % |  |
| CCc1nc(C(N)=O)c(Nc2ccc(N3CCC(N4CCN(C)CC4)CC3)c(C)c2)nc1NC1CCC(O)(CC)CC1 (stereo not drawn) [Example 490] | 3.1 | 18 |  |  |  |  |
| CCc1nc(C(N)=O)c(Nc2ccc(N3CCC(N4CCN(C)CC4)CC3)c(C)c2)nc1NC1CCC(O)(CC)CC1 (stereo not drawn) [Example 491] | 2.8 |  |  |  |  | 16 |
| CCc1nc(C(N)=O)c(Nc2ccc(N3CCC(N4CCN(C)CC4)CC3)c(C)c2)nc1NC1CCC(O)(C(C)C)CC1 (stereo not drawn) [Example 493] | 2.6 |  |  |  |  | 19 |
| CCc1nc(C(N)=O)c(Nc2ccc(N3CCC(N4CCN(C)CC4)CC3)c(C)c2)nc1NC1CCC(O)(C(C)C)CC1 (stereo not drawn) [Example 494] | 4.1 |  |  |  |  | 42 |
| CCc1nc(C(N)=O)c(Nc2ccc(N3CCC(N4CCN(C)CC4)CC3)c(C)c2)nc1NC1CCOCC1 [Example 512] | 1.5 | 19 |  |  |  |  |
| Cc1cc(Nc2nc(N[C@H]3CC[C@H](O)CC3)c(Cl)nc2C(N)=O)ccc1N1CCC(N2CCN(C)CC2)CC1 [Example 538] | 2.3 | 7.7 |  |  |  |  |
| CCc1nc(C(N)=O)c(Nc2ccc(N3CCN(C)CC3)cc2)nc1NC1CCOCC1 [Example 545] | 11 | 25 |  |  |  |  |
| CCc1nc(C(N)=O)c(Nc2ccc(N3CCC(N4CCN(C)CC4)CC3)cc2)nc1NC1CCOCC1 [Example 546] | 7.8 | 23 |  | 79 |  |  |
| CCc1nc(C(N)=O)c(Nc2ccc(N3CCC(N4CCN(C)CC4)CC3)c(OC)c2)nc1NC1CCOCC1 [Example 547] |  | 5.7 |  |  |  |  |
| CCc1nc(C(N)=O)c(Nc2ccc(N3CCN(C)CC3)c(F)c2)nc1NC1CCOCC1 [Example 550] | 11 | 39 |  |  |  |  |
| COc1cc(Nc2nc(NC3CCOCC3)c(C(C)C)nc2C(N)=O)ccc1N1CCN(C)CC1 [Example 553] |  |  |  | 63 |  |  |
| CC(C)c1nc(C(N)=O)c(Nc2ccc(N3CCN(C)CC3)cc2)nc1NC1CCOCC1 [Example 554] | 4.5 | 14 |  |  |  |  |
| CCc1nc(C(N)=O)c(Nc2ccc(N3CCN(C4CCN(C)CC4)CC3)c(C)c2)nc1NC1CCOCC1 [Example 558] | 2.2 | 16 |  |  | 37 (regression) % |  |
